The source of these data is PMC5362899, “Structural insights into the nucleotide base specificity of P2X receptors” (Scientific Reports, 2017).

Where a chain is given by its changes, count along the chain named.

One assay concerns the target T1, rat P2X4 rT186A mutant (Rattus norvegicus, UniProt P51577, T186A).
T1 construct: rat P2X4 (NP_113782.1; WT and mutants) were transcribed from pGEMHE plasmids; expressed in transfected cells; host or cells: Xenopus laevis oocytes injected with cRNA from pGEMHE
T1 sequence (P51577 1-388 T186A): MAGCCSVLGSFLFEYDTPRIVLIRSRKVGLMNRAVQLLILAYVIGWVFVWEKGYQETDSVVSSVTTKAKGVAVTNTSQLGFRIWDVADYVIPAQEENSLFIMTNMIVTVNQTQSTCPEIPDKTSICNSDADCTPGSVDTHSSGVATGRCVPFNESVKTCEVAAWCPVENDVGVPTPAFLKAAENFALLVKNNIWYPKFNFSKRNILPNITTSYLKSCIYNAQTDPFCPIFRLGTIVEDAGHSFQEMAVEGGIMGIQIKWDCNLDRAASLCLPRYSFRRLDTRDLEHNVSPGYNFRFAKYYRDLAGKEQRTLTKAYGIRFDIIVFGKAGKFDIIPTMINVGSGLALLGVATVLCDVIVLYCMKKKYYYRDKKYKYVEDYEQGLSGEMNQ
The experiment in a line: Two-Electrode Voltage Clamp recording, rat P2X4 T186A mutant in Xenopus oocytes. It is filed as cell-based. The note with it: 3 mM ATP, 3 mM CTP (Fig. S3). From the text:
(§1) To further investigate the functional roles of the residues involved in the base recognition, T189 and R143, we performed an electrophysiological analysis with the rat P2X4, since its electrophysiological properties have been well established. We first assessed the functional role of T189 in zfP2X4 and introduced mutations at the equivalent residue of the rat P2X4 to create three mutants (^rT186A, ^rT186V and ^rT186S; the superscript “r” means rat P2X4). […] Therefore, we examined the ^rWT and the ^rT186S mutant.
(§2) The cRNAs encoding zebrafish P2X4 (NP_705939; WT) and rat P2X4 (NP_113782.1; WT and mutants) were transcribed from pGEMHE plasmids, using a mMessage mMachine® T7 ULTRA kit (Ambion, Huntingdon, Cambridgeshire, UK). Xenopus laevis oocytes were prepared, and RNA (100 ng for zebrafish P2X4, and 20 ng for rat P2X4) was injected into the oocytes. The oocytes were incubated at 18 °C in Barth’s solution, containing 88 mM NaCl, 1 mM KCl, 2.4 mM NaHCO3, 10 mM HEPES, 0.33 mM Ca(NO3)2, 0.41 mM CaCl2, and 0.82 mM MgSO4, pH 7.4, supplemented with 50 μg/ml gentamicin, and were used for recording after 2–3 days. […] Oocytes were held at −70 mV with a bath-clamp amplifier (OC-725C, Warner Co., USA), and macroscopic currents were recorded and analyzed using the pClamp 10 software (Molecular Devices, USA)[33][34]. We measured n = 4 for zebrafish P2X4 data and n = 7–9 for rat P2X4 data. […]

For the next assay, the target named is T2, rat P2X4 rT186V mutant (Rattus norvegicus, UniProt P51577, T186V).
T2 construct: rat P2X4 (NP_113782.1; WT and mutants) were transcribed from pGEMHE plasmids; expressed in transfected cells; host or cells: Xenopus laevis oocytes injected with cRNA from pGEMHE
T2 sequence (P51577 1-388 T186V): T1 sequence (P51577 1-388 T186A) with A186V
Put plainly: Two-Electrode Voltage Clamp recording, rat P2X4 T186V mutant in Xenopus oocytes. It is filed as cell-based. The note with it: 3 mM ATP, 3 mM CTP (Fig. S3).
Description: as §1, §2

On to `Nc1ccn([C@@H]2O[C@H](COP(=O)(O)OP(=O)(O)OP(=O)(O)O)[C@@H](O)[C@H]2O)c(=O)n1` [CTP], for which the nucleotide-evoked currents result at rat P2X4 rT186A mutant is “no ATP- and CTP-evoked currents were detected”; on rat P2X4 rT186V mutant, “no ATP- and CTP-evoked currents were detected”.
On to `Nc1ncnc2c1ncn2[C@@H]1O[C@H](COP(=O)(O)OP(=O)(O)OP(=O)(O)O)[C@@H](O)[C@H]1O` [ATP, Adenosine 5-triphosphate], for which the nucleotide-evoked currents entry at rat P2X4 rT186A mutant is “no ATP- and CTP-evoked currents were detected”; on rat P2X4 rT186V mutant, “no ATP- and CTP-evoked currents were detected”.
